Results as given in patent US9023789B2, “Amylin analogs and pharmaceutical compositions thereof” (Novo Nordisk A/S, priority 2012, dated 2015).
Numbered stars: 1 amine (or outer) side, 2 acyl side, 3 side chain; on linkers, the order of the positions; unused ones are H or OH. Bridge positions count the residues as written; N and C are the ends. Peptide text beside a SMILES is read from it. * marks the point of attachment. C20 diacid = O=C(O)CCCCCCCCCCCCCCCCCCC(=O)*; γGlu = O=C(O)[C@H](CCC(=O)[*:2])N[*:1]

Experiments:
rat calcitonin receptor = target: T1, rat calcitonin receptor (Rattus norvegicus, UniProt P32214); assay: ASSAY (VIII) binding to the rat calcitonin receptor; conditions: Table 7, read-out: rCTR bind IC50
T1 construct: expressed in transfected cells; host or cells: BHK tk'ts 13 (transient, FuGENE 6), membranes
T1 sequence (P32214 25-479 isoform P32214-2 limits assumed): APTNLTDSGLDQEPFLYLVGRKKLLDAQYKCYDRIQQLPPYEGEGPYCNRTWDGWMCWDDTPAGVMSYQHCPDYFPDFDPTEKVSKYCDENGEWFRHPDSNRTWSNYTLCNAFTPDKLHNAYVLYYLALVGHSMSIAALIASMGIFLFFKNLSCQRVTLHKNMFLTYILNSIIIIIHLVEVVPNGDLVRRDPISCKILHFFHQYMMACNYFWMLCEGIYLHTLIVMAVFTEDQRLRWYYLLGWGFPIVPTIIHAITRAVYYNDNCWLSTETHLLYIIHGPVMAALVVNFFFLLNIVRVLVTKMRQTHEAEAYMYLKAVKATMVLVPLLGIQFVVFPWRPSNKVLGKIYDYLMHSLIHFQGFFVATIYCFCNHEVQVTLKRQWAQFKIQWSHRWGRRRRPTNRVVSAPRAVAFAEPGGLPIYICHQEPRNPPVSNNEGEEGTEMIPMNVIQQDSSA
In short: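 Cell membranes for binding came from BHK tk′ts 13 cells harvested approximately 48 hours after transient transfection with the rat receptor.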

[1] = target: T2, human amylin 3(a) receptor (human calcitonin receptor + RAMP-3) in BHK570 cells (Homo sapiens, UniProt O60896+P30988); assay: ASSAY (II)a functional assay, human amylin receptor (CRE luciferase); type: cell-based
T2 construct: expressed in transfected cells
In short: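 Readout is luminescence from a cAMP-responsive CRE-luc reporter, developed with LucLite for 30 min at room temperature. Cells were treated for 3 h at 37 °C in 10% FBS/DMEM buffered with 10 mM Hepes (pH 7.4).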

[2] = target: T3, human amylin receptor (membranes from Amylin 3(a)/CRE-luc cells) (Homo sapiens, UniProt O60896+P30988); assay: ASSAY (V) binding to the human amylin receptor (SPA, 125I-rat amylin);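 note: competition binding of cell membranes (35 ng/µL) mixed with SPA beads in 384-well plates at 40 µL total volume, read by scintillation counting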
T3 construct: expressed in transfected cells
T3 sequence (P30988 25-474): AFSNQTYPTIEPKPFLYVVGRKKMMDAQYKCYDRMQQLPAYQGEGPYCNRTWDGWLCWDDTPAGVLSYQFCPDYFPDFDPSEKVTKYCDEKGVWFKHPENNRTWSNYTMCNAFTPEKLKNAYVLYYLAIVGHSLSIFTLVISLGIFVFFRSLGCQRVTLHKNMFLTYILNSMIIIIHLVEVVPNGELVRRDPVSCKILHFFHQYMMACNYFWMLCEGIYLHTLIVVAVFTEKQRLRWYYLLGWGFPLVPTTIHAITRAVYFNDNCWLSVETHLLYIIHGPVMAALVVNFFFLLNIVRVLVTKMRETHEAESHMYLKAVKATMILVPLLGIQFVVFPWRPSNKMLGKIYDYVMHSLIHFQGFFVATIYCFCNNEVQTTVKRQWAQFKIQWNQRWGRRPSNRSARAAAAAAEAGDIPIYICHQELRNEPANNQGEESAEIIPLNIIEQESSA
T3 sequence (O60896 24-148 partner): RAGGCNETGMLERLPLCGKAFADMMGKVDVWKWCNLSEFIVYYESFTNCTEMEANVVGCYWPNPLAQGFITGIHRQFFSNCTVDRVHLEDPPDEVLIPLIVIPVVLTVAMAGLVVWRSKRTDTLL

[3] = target: T4, rat amylin receptor (rat calcitonin receptor + rat RAMP 3) (Rattus norvegicus, UniProt P32214+Q9JJ73); assay: ASSAY (VI) binding to the rat amylin receptor; conditions: for IC50: binding to rat amylin receptor, read-out: rAmylin-R bind IC50
T4 construct: expressed in transfected cells; host or cells: BHK tk'ts 13 (transient, FuGENE 6), membranes
T4 sequence (P32214 25-479 isoform P32214-2 limits assumed): T1 sequence (P32214 25-479 isoform P32214-2 limits assumed)
T4 sequence (Q9JJ73 23-147 partner): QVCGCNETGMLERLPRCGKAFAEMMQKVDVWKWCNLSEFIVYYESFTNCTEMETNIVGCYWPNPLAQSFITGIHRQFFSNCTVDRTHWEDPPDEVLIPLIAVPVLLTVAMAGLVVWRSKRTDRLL
In short: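 Membranes for this rat amylin receptor binding assay came from BHK tk′ts 13 cells. The cells were transiently transfected with rat calcitonin receptor using the FuGENE® 6 reagent from Roche, as the manufacturer recommends. The cells were collected approximately 48 hours after transfection, and membranes were then prepared.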

[4] = hCTR funct. EC50 divided by hAmylin-R funct. EC50
[5] = hCTR funct. EC50 over hAmylin-R funct. EC50
[6] = human functional selectivity: hCTR funct. EC50 / hAmylin-R funct. EC50
[7] = Table 5, selectivity, hCTR bind IC50 / hAmylin-R bind IC50
[8] = Table 5a, selectivity, hCTR bind IC50 / hAmylin-R bind IC50
[9] = Table 5b, selectivity, hCTR bind IC50 / hAmylin-R bind IC50
[10] = Table 5c, selectivity, hCTR bind IC50 / hAmylin-R bind IC50
[11] = Table 7, human binding selectivity, included for comparison
[12] = Table 7a (preferred compounds), human binding selectivity, included for comparison
[13] = ratio of human calcitonin receptor binding IC50 to human amylin receptor binding IC50
[14] = Table 7, rat binding selectivity, rCTR IC50 / rAmylin-R IC50
[15] = Table 7a (preferred compounds), rat binding selectivity, rCTR IC50 / rAmylin-R IC50
[16] = ratio of rCTR bind IC50 to rAmylin-R bind IC50

Compound | IC50 (rat calcitonin receptor) [µM] | Ratio hCT/hAmylin funct. [1, 4] | Ratio hCT/hAmylin funct. [1, 5] | Ratio hCT/hAmylin funct. [1, 6] | Ratio hCT/hAmylin binding [2, 7] | Ratio hCT/hAmylin binding [2, 8] | Ratio hCT/hAmylin binding [2, 9] | Ratio hCT/hAmylin binding [2, 10] | Ratio hCT/hAmylin binding [2, 11] | Ratio hCT/hAmylin binding [2, 12] | Ratio hCT/hAmylin binding [2, 13] | IC50 ([3]; Table 7) [µM] | Ratio rCT/rAmylin binding [3, 14] | Ratio rCT/rAmylin binding [3, 15] | Ratio rCT/rAmylin binding [3, 16] | Ratio hCT/hAmylin funct. ([1]; hCTR funct. EC50 / hAmylin-R funct. EC50)
CC[C@H](C)[C@H](NC(=O)[C@H](C)NC(=O)CNC(=O)[C@H](Cc1ccccc1)NC(=O)[C@H](CC(N)=O)NC(=O)[C@@H]1CCCN1C(=O)[C@H](CO)NC(=O)[C@H](CO)NC(=O)[C@H](Cc1c[nH]cn1)NC(=O)[C@H](CCCNC(=N)N)NC(=O)[C@H](CC(C)C)NC(=O)[C@H](Cc1ccccc1)NC(=O)[C@H](CCC(=O)O)NC(=O)[C@H](C)NC(=O)[C@H](CC(C)C)NC(=O)[C@H](CCCNC(=N)N)NC(=O)[C@H](CCC(N)=O)NC(=O)[C@@H](NC(=O)[C@H](C)NC(=O)[C@@H]1CSSC[C@H](NC(=O)[C@H](CCCCN)NC(=O)COCCOCCNC(=O)COCCOCCNC(=O)CC[C@H](NC(=O)CCCCCCCCCCCCCCCCCCC(=O)O)C(=O)O)C(=O)N[C@@H](CC(N)=O)C(=O)N[C@@H]([C@@H](C)O)C(=O)N[C@@H](C)C(=O)N[C@@H]([C@@H](C)O)C(=O)N1)[C@@H](C)O)C(=O)N1CCC[C@H]1C(=O)N[C@@H](CO)C(=O)N[C@@H](CO)C(=O)N[C@H](C(=O)N[C@@H](CC(N)=O)C(=O)N[C@H](C(=O)NCC(=O)N[C@@H](CO)C(=O)N[C@@H](CC(N)=O)C(=O)N[C@H](C(=O)N[C@@H](Cc1ccc(O)cc1)C(N)=O)[C@@H](C)O)C(C)C)[C@@H](C)O [Example 19] | 0.0956 | 17.4 | 17.4 | 17.4 | 36.7 | 36.7 | 36.7 | 36.7 | 36.7 | 36.7 | 36.7 | 0.00102 | 93.6 | 93.6 | 93.6 | –
CC[C@H](C)[C@H](NC(=O)[C@H](C)NC(=O)CNC(=O)[C@H](Cc1ccccc1)NC(=O)[C@H](CC(N)=O)NC(=O)[C@@H]1CCCN1C(=O)[C@H](CO)NC(=O)[C@H](CO)NC(=O)[C@H](Cc1c[nH]cn1)NC(=O)[C@H](CCCNC(=N)N)NC(=O)[C@H](CC(C)C)NC(=O)[C@H](Cc1ccccc1)NC(=O)[C@H](CCC(=O)O)NC(=O)[C@H](C)NC(=O)[C@H](CC(C)C)NC(=O)[C@H](CCCNC(=N)N)NC(=O)[C@H](CCC(N)=O)NC(=O)[C@@H](NC(=O)[C@H](C)NC(=O)[C@@H]1CSSC[C@H](NC(=O)[C@H](CCCCN)NC(=O)CC[C@H](NC(=O)CCCCCCCCCCCCCCCCCCC(=O)O)C(=O)O)C(=O)N[C@@H](CC(N)=O)C(=O)N[C@@H]([C@@H](C)O)C(=O)N[C@@H](C)C(=O)N[C@@H]([C@@H](C)O)C(=O)N1)[C@@H](C)O)C(=O)N1CCC[C@H]1C(=O)N[C@@H](CO)C(=O)N[C@@H](CO)C(=O)N[C@H](C(=O)N[C@@H](CC(N)=O)C(=O)N[C@H](C(=O)NCC(=O)N[C@@H](CO)C(=O)N[C@@H](CCC(=O)O)C(=O)N[C@H](C(=O)N[C@@H](Cc1ccc(O)cc1)C(N)=O)[C@@H](C)O)C(C)C)[C@@H](C)O [Example 22] ({C20 diacid-γGlu}-KCNTATCATQRLAEFLRHSSPNFGAIPSSTNVGSETY-NH2; disulfide 2-7) | 0.0625 | 3.8 | 3.8 | 3.8 | 12.3 | 12.3 | – | – | 12.3 | 12.3 | 12.3 | 0.00219 | 28.5 | 28.5 | 28.5 | 3.8
CC[C@H](C)[C@H](NC(=O)[C@H](C)NC(=O)CNC(=O)[C@H](Cc1ccccc1)NC(=O)[C@H](CC(N)=O)NC(=O)[C@@H]1CCCN1C(=O)[C@H](CO)NC(=O)[C@H](CO)NC(=O)[C@H](Cc1c[nH]cn1)NC(=O)[C@H](CCCNC(=N)N)NC(=O)[C@H](CC(C)C)NC(=O)[C@H](Cc1ccccc1)NC(=O)[C@H](CC(N)=O)NC(=O)[C@H](C)NC(=O)[C@H](CC(C)C)NC(=O)[C@H](CCCNC(=N)N)NC(=O)[C@H](CCC(N)=O)NC(=O)[C@@H](NC(=O)[C@H](C)NC(=O)[C@@H]1CSSC[C@H](NC(=O)[C@H](CCCCN)NC(=O)CC[C@H](NC(=O)CCCCCCCCCCCCCCCCCCC(=O)O)C(=O)O)C(=O)N[C@@H](CC(N)=O)C(=O)N[C@@H]([C@@H](C)O)C(=O)N[C@@H](C)C(=O)N[C@@H]([C@@H](C)O)C(=O)N1)[C@@H](C)O)C(=O)N1CCC[C@H]1C(=O)N[C@@H](CO)C(=O)N[C@@H](CO)C(=O)N[C@H](C(=O)N[C@@H](CC(N)=O)C(=O)N[C@H](C(=O)NCC(=O)N[C@@H](CO)C(=O)N[C@@H](CCC(=O)O)C(=O)N[C@H](C(=O)N[C@@H](Cc1ccc(O)cc1)C(N)=O)[C@@H](C)O)C(C)C)[C@@H](C)O [Example 23] | 0.0799 | 8.9 | 8.9 | 8.9 | 25.0 | 25.0 | 25.0 | 25.0 | 25.0 | 25.0 | 25.0 | 0.00112 | 71.3 | 71.3 | 71.3 | –
CC[C@H](C)[C@H](NC(=O)[C@H](C)NC(=O)CNC(=O)[C@H](Cc1ccccc1)NC(=O)[C@H](CC(N)=O)NC(=O)[C@@H]1CCCN1C(=O)[C@H](CO)NC(=O)[C@H](CO)NC(=O)[C@H](Cc1c[nH]cn1)NC(=O)[C@H](CCCNC(=N)N)NC(=O)[C@H](CC(C)C)NC(=O)[C@H](Cc1ccccc1)NC(=O)[C@H](CC(N)=O)NC(=O)[C@H](C)NC(=O)[C@H](CC(C)C)NC(=O)[C@H](CCCNC(=N)N)NC(=O)[C@H](CCC(N)=O)NC(=O)[C@@H](NC(=O)[C@H](C)NC(=O)[C@@H]1CSSC[C@H](NC(=O)[C@H](CCCCN)NC(=O)COCCOCCNC(=O)COCCOCCNC(=O)CC[C@H](NC(=O)CCCCCCCCCCCCCCCCCCC(=O)O)C(=O)O)C(=O)N[C@@H](CC(N)=O)C(=O)N[C@@H]([C@@H](C)O)C(=O)N[C@@H](C)C(=O)N[C@@H]([C@@H](C)O)C(=O)N1)[C@@H](C)O)C(=O)N1CCC[C@H]1C(=O)N[C@@H](CO)C(=O)N[C@@H](CO)C(=O)N[C@H](C(=O)N[C@@H](CC(N)=O)C(=O)N[C@H](C(=O)NCC(=O)N[C@@H](CO)C(=O)N[C@@H](CC(N)=O)C(=O)N[C@H](C(=O)N[C@@H](Cc1ccc(O)cc1)C(N)=O)[C@@H](C)O)C(C)C)[C@@H](C)O [Example 24] | 0.35 | 23.1 | 23.1 | 23.1 | 90.0 | 90.0 | 90.0 | 90.0 | 90.0 | 90.0 | 90.0 | 0.00301 | 116.3 | 116.3 | 116.3 | –
